Activity calls are given as the source filed them. No cut-off for these calls is given here.
What was measured:
Cytochrome P450 2D6 = Cytochrome P450 2D6 (Homo sapiens, UniProt P10635); test: Inhibition of CYP2D6 in human liver microsomes using tolbutamide as substrate preincubated for 5 mins followed by NADPH-generating system addition and measured after 20 mins by LC-MS/MS analysis
PANC-1 [1] = test: Effect on MMP2 secretion in MYOF-knockout human PANC1 cells up to 400 nM by Western blot analysis; type: functional, cell-based
Myoferlin [2] = biological target: T1, Myoferlin (Homo sapiens, UniProt Q9NZM1); test: Inhibition of MYOF in human PANC1 cells assessed as reversal of epithelial-mesenchymal transition by measuring down regulation of fibronectin expression up to 400 nM by Western blot analysis; type: cell-based
T1 sequence (Q9NZM1 whole entry, the tested form may be a part): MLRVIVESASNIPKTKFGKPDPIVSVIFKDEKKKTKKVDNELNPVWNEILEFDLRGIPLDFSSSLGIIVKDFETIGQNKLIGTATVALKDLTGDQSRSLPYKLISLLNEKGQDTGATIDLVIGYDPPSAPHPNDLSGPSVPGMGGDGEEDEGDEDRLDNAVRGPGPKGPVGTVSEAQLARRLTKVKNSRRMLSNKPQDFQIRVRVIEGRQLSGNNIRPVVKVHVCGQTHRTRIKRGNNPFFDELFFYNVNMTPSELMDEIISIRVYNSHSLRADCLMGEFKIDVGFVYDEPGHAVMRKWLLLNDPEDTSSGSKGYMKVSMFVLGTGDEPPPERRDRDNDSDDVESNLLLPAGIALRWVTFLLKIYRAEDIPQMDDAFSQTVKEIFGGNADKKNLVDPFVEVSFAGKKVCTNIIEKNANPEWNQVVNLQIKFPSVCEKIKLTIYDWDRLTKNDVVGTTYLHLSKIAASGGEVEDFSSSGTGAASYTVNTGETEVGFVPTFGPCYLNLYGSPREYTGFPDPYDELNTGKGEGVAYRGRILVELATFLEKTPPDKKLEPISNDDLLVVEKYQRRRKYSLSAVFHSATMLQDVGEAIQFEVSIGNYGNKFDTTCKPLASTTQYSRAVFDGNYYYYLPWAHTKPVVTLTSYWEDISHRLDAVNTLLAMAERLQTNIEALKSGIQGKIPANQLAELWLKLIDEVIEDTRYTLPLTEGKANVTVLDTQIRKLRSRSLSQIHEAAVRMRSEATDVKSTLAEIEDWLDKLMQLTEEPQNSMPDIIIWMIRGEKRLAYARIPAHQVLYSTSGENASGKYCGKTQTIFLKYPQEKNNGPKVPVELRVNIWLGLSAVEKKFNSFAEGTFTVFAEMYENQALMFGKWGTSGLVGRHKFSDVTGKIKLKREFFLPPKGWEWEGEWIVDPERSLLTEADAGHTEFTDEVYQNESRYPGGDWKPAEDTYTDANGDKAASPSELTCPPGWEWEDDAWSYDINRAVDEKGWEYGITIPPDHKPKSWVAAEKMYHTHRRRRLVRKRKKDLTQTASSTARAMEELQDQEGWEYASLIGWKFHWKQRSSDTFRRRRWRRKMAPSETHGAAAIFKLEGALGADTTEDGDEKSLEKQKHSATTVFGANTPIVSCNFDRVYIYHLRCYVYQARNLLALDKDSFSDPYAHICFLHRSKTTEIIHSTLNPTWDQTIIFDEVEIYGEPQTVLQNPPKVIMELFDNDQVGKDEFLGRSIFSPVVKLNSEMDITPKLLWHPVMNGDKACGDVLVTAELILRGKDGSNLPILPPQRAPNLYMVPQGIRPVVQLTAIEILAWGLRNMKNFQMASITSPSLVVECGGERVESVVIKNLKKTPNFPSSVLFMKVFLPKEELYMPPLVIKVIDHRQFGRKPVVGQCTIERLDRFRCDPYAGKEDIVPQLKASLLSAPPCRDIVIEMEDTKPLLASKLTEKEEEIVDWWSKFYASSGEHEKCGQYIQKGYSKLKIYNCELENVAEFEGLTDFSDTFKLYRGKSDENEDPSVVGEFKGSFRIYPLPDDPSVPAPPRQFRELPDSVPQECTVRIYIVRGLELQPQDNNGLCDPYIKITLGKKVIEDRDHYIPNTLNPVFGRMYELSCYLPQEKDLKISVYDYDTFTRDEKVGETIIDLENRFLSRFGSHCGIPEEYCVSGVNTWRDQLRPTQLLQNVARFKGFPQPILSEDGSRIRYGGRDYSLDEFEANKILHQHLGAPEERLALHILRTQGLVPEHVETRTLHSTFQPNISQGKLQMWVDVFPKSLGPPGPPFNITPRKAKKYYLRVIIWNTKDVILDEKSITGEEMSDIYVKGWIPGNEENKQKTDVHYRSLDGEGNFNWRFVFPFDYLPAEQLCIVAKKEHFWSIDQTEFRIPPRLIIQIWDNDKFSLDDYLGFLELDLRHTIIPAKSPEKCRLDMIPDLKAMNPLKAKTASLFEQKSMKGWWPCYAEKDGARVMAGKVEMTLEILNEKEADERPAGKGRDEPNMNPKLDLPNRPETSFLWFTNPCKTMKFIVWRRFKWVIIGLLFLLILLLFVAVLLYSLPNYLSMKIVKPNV

Myoferlin [3] = biological target: T1, Myoferlin; test: Reversible binding affinity to recombinant human GST-tagged MYOF C2 domain (3445 to 3912 residues) expressed in Escherichia coli BL21 (DE3) by surface plasmon resonance analysis
Cytochrome P450 3A4 = Cytochrome P450 3A4 (Homo sapiens, UniProt P08684); test: Inhibition of CYP3A4 in human liver microsomes using midazolam as substrate preincubated for 5 mins followed by NADPH-generating system addition and measured after 20 mins by LC-MS/MS analysis
Sequence of Cytochrome P450 3A4 (P08684 whole entry): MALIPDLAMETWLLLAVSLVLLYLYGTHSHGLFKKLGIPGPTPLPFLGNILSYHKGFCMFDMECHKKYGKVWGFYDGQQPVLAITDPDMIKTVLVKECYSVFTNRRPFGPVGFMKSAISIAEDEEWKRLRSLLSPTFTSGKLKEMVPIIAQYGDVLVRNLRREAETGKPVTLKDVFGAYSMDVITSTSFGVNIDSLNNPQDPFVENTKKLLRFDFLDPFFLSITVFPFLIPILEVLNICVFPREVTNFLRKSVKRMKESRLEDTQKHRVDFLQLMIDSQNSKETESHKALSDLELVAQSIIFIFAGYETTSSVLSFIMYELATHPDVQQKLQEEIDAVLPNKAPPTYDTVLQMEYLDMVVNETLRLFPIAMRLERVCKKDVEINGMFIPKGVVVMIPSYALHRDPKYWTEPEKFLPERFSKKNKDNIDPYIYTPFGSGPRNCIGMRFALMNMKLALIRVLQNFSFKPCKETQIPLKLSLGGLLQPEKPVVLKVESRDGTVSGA

PANC-1 [4] = test: Antimigratory activity against MYOF-knockout human PANC1 cells measured after 18 hrs in presence of mitomycin C using crystal violet staining by inverted microscopy-based transwell assay; type: functional, cell-based
PANC-1 [5] = test: Effect on VEGFR2 expression in MYOF-knockout human PANC1 cells up to 400 nM by Western blot analysis; type: functional, cell-based
Cytochrome P450 2E1 = Cytochrome P450 2E1 (Homo sapiens, UniProt P05181); test: Inhibition of CYP2E1 in human liver microsomes using chlorzoxazone as substrate preincubated for 5 mins followed by NADPH-generating system addition and measured after 20 mins by LC-MS/MS analysis
Sequence of Cytochrome P450 2E1 (P05181 whole entry): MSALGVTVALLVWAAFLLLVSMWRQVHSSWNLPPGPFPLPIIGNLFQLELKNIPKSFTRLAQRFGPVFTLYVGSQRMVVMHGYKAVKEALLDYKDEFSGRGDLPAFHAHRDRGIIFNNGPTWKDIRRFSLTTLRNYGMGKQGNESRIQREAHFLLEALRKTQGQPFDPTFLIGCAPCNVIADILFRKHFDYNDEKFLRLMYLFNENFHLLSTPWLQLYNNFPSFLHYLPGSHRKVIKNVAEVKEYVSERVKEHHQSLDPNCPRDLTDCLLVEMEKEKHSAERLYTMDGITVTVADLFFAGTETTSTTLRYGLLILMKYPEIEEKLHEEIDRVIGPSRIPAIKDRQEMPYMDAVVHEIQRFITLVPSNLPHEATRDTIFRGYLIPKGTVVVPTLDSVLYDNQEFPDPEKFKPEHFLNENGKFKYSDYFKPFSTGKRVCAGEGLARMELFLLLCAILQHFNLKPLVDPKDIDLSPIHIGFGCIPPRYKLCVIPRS

[6] = Toxicity in Balb/c nude mouse xenografted with PANC1 cells assessed as pathological changes in spleen at 25 to 50 mg/kg/day, ip by H and E staining-based microscopic analysis; type: organism-based; details: in vivo
Capan-2 = test: Cytotoxicity against human Capan2 cells assessed as reduction in cell viability measured after 48 hrs by MTS assay; type: cell-based; details: Capan-2, 48 h
[7] = biological target: Vascular endothelial growth factor receptor 2 (Homo sapiens) (UniProt P35968); test: Effect on VEGFR2 phosphorylation in MYOF-knockout human PANC1 cells up to 400 nM by Western blot analysis
Sequence of Vascular endothelial growth factor receptor 2 (Homo sapiens) (P35968 whole entry): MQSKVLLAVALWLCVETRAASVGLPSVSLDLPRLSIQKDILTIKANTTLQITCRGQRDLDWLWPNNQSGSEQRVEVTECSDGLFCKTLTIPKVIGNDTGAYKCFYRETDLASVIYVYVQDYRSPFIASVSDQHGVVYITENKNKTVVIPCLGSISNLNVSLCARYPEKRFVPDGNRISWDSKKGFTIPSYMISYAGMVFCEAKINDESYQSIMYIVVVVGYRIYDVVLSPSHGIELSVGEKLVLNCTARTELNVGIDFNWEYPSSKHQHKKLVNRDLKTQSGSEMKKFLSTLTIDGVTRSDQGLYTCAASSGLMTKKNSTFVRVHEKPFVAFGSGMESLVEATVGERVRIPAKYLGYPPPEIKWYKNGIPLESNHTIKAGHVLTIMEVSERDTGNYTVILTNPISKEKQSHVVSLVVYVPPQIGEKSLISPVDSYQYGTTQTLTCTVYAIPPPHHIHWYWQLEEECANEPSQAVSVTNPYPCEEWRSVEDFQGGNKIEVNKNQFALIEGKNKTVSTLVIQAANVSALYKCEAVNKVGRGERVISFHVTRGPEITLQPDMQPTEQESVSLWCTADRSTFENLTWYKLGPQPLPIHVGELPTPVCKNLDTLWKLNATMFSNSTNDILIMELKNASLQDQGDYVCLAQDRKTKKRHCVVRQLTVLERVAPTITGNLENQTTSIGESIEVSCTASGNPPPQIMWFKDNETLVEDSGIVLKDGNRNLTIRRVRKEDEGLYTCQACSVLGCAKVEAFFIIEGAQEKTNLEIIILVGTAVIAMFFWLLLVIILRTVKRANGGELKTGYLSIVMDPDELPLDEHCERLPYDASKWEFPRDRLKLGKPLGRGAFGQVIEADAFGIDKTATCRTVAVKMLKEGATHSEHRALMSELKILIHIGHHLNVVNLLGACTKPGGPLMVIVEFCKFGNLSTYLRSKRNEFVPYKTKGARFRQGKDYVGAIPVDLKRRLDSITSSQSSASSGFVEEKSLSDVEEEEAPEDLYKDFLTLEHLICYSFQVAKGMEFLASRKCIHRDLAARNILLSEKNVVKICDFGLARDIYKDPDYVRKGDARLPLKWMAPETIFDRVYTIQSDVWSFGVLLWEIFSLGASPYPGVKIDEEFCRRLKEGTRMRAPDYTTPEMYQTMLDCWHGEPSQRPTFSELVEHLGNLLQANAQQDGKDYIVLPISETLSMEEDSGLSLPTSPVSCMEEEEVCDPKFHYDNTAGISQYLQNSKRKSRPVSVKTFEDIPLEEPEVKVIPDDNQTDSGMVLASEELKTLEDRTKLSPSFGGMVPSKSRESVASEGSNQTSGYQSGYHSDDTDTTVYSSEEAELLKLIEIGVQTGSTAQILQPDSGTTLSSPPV

MIA PaCa-2 = test: Cytotoxicity against human MIAPaCa2 cells assessed as reduction in cell viability measured after 48 hrs by MTS assay; type: cell-based; details: MIA PaCa-2, 48 h
Myoferlin [8] = biological target: T1, Myoferlin; test: Inhibition of MYOF in human PANC1 cells assessed as increase in EGF-stimulated EGFR phosphorylation by Western blot analysis; type: cell-based
Cytochrome P450 2C9 = Cytochrome P450 2C9 (Homo sapiens, UniProt P11712); test: Inhibition of CYP2C9 in human liver microsomes using tolbutamide as substrate preincubated for 5 mins followed by NADPH-generating system addition and measured after 20 mins by LC-MS/MS analysis
Sequence of Cytochrome P450 2C9 (P11712 whole entry): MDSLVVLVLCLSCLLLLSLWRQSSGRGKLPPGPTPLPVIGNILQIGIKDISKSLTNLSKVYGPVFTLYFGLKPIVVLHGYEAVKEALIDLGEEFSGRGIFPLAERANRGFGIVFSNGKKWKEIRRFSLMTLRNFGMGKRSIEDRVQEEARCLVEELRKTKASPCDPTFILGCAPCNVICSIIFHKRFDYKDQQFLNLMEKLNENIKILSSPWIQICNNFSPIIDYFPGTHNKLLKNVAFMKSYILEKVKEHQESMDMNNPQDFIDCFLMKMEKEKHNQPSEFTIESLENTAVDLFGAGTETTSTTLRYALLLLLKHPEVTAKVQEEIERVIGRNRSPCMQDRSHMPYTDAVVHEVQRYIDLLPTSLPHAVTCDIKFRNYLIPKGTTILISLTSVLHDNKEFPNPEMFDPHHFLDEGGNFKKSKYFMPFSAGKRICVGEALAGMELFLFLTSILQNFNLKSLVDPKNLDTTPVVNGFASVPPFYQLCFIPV

PANC-1 [9] = test: Effect on Snail1 expression in human PANC1 cells up to 400 nM by Western blot analysis; type: functional, cell-based
[10] = Toxicity in Balb/c nude mouse xenografted with PANC1 cells assessed as pathological changes in lung at 25 to 50 mg/kg/day, ip by H and E staining-based microscopic analysis; type: organism-based; details: in vivo
PANC-1 [11] = test: Effect on dynein expression in human PANC1 cells up to 400 nM by Western blot analysis; type: functional, cell-based
[12] = Cytotoxicity against human HPDE6c7 cells assessed as reduction in cell viability measured after 48 hrs by MTS assay; type: cell-based; details: HPDE6c7, 48 h
[13] = Cytotoxicity against HAF cells assessed as reduction in cell viability measured after 48 hrs by MTS assay; type: cell-based; details: Homo sapiens
PANC-1 [14] = test: Antiinvasive activity against human PANC1 cells measured after 18 hrs in presence of mitomycin C using crystal violet staining by inverted microscopy-based matrigel coated transwell assay; type: functional, cell-based; details: PANC-1, 18 h
Myoferlin [15] = biological target: T1, Myoferlin; test: Inhibition of MYOF in human PANC1 cells assessed as reduction in phospho-VEGFR2 level by Western blot analysis; type: cell-based
PANC-1 [16] = test: Cytotoxicity against human PANC1 cells assessed as reduction in cell viability at 0.1 to 1 uM measured after 18 hrs by MTS assay; type: cell-based; details: panc-1, 18 h
PANC-1 [17] = test: Antimigratory activity against MYOF-knockout human PANC1 cells transfected with pcDNA3.1-MYOF measured after 18 hrs in presence of mitomycin C using crystal violet staining by inverted microscopy-based transwell assay; type: functional, cell-based
PANC-1 [18] = test: Antimetastatic activity against human PANC1 cells harboring luciferase reporter gene xenografted in Balb/c nude mouse assessed as mouse survival at 50 mg/kg/day, ip (reference value: 25%); type: functional; details: PANC-1, ip

CCc1nc(-c2ncc(OC)cn2)n(-c2cccc(C(=O)NCCCCc3ccccc3)c2)n1
IC50 (Cytochrome P450 2D6): 49.6 µM
Activity (PANC-1 [1]): inactive
inhibition (Myoferlin [2]): Dose-dependent effect
Activity (Myoferlin [3]): Dose-dependent effect
Kd (Myoferlin [3]): 94 nM
IC50 (Cytochrome P450 3A4): > 50 µM
Activity (PANC-1 [4]): inactive
Activity (PANC-1 [5]): inactive
IC50 (Cytochrome P450 2E1): > 50 µM
Activity [6]: Non-Toxic
IC50 (Capan-2): 2850 nM
Activity [7]: inactive
IC50 (MIA PaCa-2): 1540 nM
inhibition (Myoferlin [8]): Dose-dependent effect
IC50 (Cytochrome P450 2C9): 20.5 µM
Activity (PANC-1 [9]): inactive
Activity [10]: Non-Toxic
Activity (PANC-1 [11]): inactive
IC50 [12]: 14.6 µM
IC50 [13]: 8.54 µM
IC50 (PANC-1 [14]): 120 nM
inhibition (Myoferlin [15]): Dose-dependent effect
Activity (PANC-1 [16]): Non-Toxic
Activity (PANC-1 [17]): Active
survival at 50 mg/kg/day (PANC-1 [18]): 87.5%

From ChEMBL document CHEMBL4304741, “Modification and Biological Evaluation of a Series of 1,5-Diaryl-1,2,4-triazole Compounds as Novel Agents against Pancreatic Cancer Metastasis through Targeting Myoferlin” (J Med Chem, 2019)
